Measured values as given in PMC5218480 (PLoS ONE, 2017).

System: MV-4-11 cells
Experiment: Gene expression microarray analysis (Affymetrix PrimeView) and GSEA
Assay type: cell-based, human
Design: RFU PODN (11730768_x_at) / Fold change /veh PODN (11730768_x_at) / RFU LINC00158 (11744669_a_at) / Fold change /veh LINC00158 (11744669_a_at) / RFU DUSP10 (11751237_a_at) / Fold change /veh DUSP10 (11751237_a_at) / RFU ID3 (11757404_x_at) / Fold change /veh ID3 (11757404_x_at) / RFU PLEKHG5 (11737974_s_at) / Fold change /veh PLEKHG5 (11737974_s_at) / RFU LRRC4B (11730491_at) / Fold change /veh LRRC4B (11730491_at) / RFU GIMAP4 (11747438_a_at) / Fold change /veh GIMAP4 (11747438_a_at) / RFU KRT8 (11758183_x_at) / Fold change /veh KRT8 (11758183_x_at) / RFU CNN1 (11734310_a_at) / Fold change /veh CNN1 (11734310_a_at) / RFU VPS37D (11726825_at) / Fold change /veh VPS37D (11726825_at) / RFU C10orf10 (11716522_x_at) / Fold change /veh C10orf10 (11716522_x_at) / RFU KIR2DL2 /// KIR2DL4 /// KIR2DL5A /// KIR2DL5B /// KIR2DS1 /// KIR2DS2 /// KIR2DS3 /// KIR2DS4 /// KIR3DL3 /// KIR3DL3 /// KIR3DS1 (11738374_at) / Fold change /veh KIR2DL2 /// KIR2DL4 /// KIR2DL5A /// KIR2DL5B /// KIR2DS1 /// KIR2DS2 /// KIR2DS3 /// KIR2DS4 /// KIR3DL3 /// KIR3DL3 /// KIR3DS1 (11738374_at) / RFU C1QL1 (11718748_at) / Fold change /veh C1QL1 (11718748_at) / RFU TMPRSS4 (11747572_a_at) / Fold change /veh TMPRSS4 (11747572_a_at) / RFU HAMP (11756126_x_at) / Fold change /veh HAMP (11756126_x_at) / RFU RNFT2 (11725882_a_at) / Fold change /veh RNFT2 (11725882_a_at) / RFU NR4A2 (11747474_a_at) / Fold change /veh NR4A2 (11747474_a_at) / RFU ABCC12 (11746883_a_at) / Fold change /veh ABCC12 (11746883_a_at) / RFU TMEM136 (11760407_x_at) / Fold change /veh TMEM136 (11760407_x_at) / RFU CLDN22 /// WWC2 (11732394_at) / Fold change /veh CLDN22 /// WWC2 (11732394_at) / RFU HLA-DPB1 (11760878_x_at) / Fold change /veh HLA-DPB1 (11760878_x_at) / RFU SPINT1 (11716480_a_at) / Fold change /veh SPINT1 (11716480_a_at) / RFU GAP43 (11754022_s_at) / Fold change /veh GAP43 (11754022_s_at) / RFU A4GNT (11735810_at) / Fold change /veh A4GNT (11735810_at) / RFU PRB3 (11715151_x_at) / Fold change /veh PRB3 (11715151_x_at) / RFU TUBB4B (11761932_at) / Fold change /veh TUBB4B (11761932_at) / RFU CAPN14 (11732068_a_at) / Fold change /veh CAPN14 (11732068_a_at) / RFU TMCC2 (11721928_a_at) / Fold change /veh TMCC2 (11721928_a_at) / RFU IRGQ (11745062_a_at) / Fold change /veh IRGQ (11745062_a_at) / RFU FAM174B (11720279_a_at) / Fold change /veh FAM174B (11720279_a_at) / RFU TMPRSS4 (11748680_a_at) / Fold change /veh TMPRSS4 (11748680_a_at) / RFU FAM212B (11763350_a_at) / Fold change /veh FAM212B (11763350_a_at) / RFU PLEKHG5 (11743358_a_at) / Fold change /veh PLEKHG5 (11743358_a_at) / RFU ZSCAN30 (11745921_a_at) / Fold change /veh ZSCAN30 (11745921_a_at) / RFU CMKLR1 (11741424_a_at) / Fold change /veh CMKLR1 (11741424_a_at) / RFU LOC101060620 /// MAPK8IP1 (11723275_at) / Fold change /veh LOC101060620 /// MAPK8IP1 (11723275_at) / RFU SPTSSB (11747773_x_at) / Fold change /veh SPTSSB (11747773_x_at) / RFU PRSS12 (11739890_at) / Fold change /veh PRSS12 (11739890_at) / RFU BIN1 (11741810_x_at) / Fold change /veh BIN1 (11741810_x_at) / RFU WNT11 (11732464_a_at) / Fold change /veh WNT11 (11732464_a_at) / RFU C10orf10 (11716521_a_at) / Fold change /veh C10orf10 (11716521_a_at) / RFU C5orf56 (11738089_at) / Fold change /veh C5orf56 (11738089_at) / RFU CYB561 (11721691_x_at) / Fold change /veh CYB561 (11721691_x_at) / RFU ANKRD19P (11752326_a_at) / Fold change /veh ANKRD19P (11752326_a_at) / RFU OR2T12 /// OR2T33 /// OR2T8 (11738714_s_at) / Fold change /veh OR2T12 /// OR2T33 /// OR2T8 (11738714_s_at) / RFU VCAN (11748164_a_at) / Fold change /veh VCAN (11748164_a_at) / RFU JSRP1 (11732532_at) / Fold change /veh JSRP1 (11732532_at) / RFU KRTAP10-11 (11738290_x_at) / Fold change /veh KRTAP10-11 (11738290_x_at) / RFU MYO3A (11730013_a_at) / Fold change /veh MYO3A (11730013_a_at) / RFU EBF3 (11725865_a_at) / Fold change /veh EBF3 (11725865_a_at) / RFU CAMK2N1 (11719241_x_at) / Fold change /veh CAMK2N1 (11719241_x_at) / RFU C5orf56 (11738088_a_at) / Fold change /veh C5orf56 (11738088_a_at) / RFU OLFML3 (11715873_a_at) / Fold change /veh OLFML3 (11715873_a_at) / RFU LOC100653217 /// NTM (11731650_a_at) / Fold change /veh LOC100653217 /// NTM (11731650_a_at) / RFU MAPK11 (11762145_a_at) / Fold change /veh MAPK11 (11762145_a_at) / RFU FIZ1 (11724087_x_at) / Fold change /veh FIZ1 (11724087_x_at) / RFU OASL (11726364_x_at) / Fold change /veh OASL (11726364_x_at) / RFU SOX15 (11748057_x_at) / Fold change /veh SOX15 (11748057_x_at) / RFU CD79A (11719716_a_at) / Fold change /veh CD79A (11719716_a_at) / RFU HIST1H1D (11736915_at) / Fold change /veh HIST1H1D (11736915_at) / RFU CASKIN2 (11723855_a_at) / Fold change /veh CASKIN2 (11723855_a_at) / RFU LOC730098 (11760151_x_at) / Fold change /veh LOC730098 (11760151_x_at) / RFU OR4N2 (11742367_at) / Fold change /veh OR4N2 (11742367_at) / RFU PRRT2 (11749266_a_at) / Fold change /veh PRRT2 (11749266_a_at) / RFU SNX32 (11753110_a_at) / Fold change /veh SNX32 (11753110_a_at) / RFU CDHR5 (11726645_a_at) / Fold change /veh CDHR5 (11726645_a_at) / RFU RCAN1 (11760418_a_at) / Fold change /veh RCAN1 (11760418_a_at) / RFU FAM167A (11723789_a_at) / Fold change /veh FAM167A (11723789_a_at) / RFU FAM26E (11764081_at) / Fold change /veh FAM26E (11764081_at) / RFU ISYNA1 (11749810_s_at) / Fold change /veh ISYNA1 (11749810_s_at) / RFU ACY1 (11761880_at) / Fold change /veh ACY1 (11761880_at) / RFU 11764098_at / Fold change /veh 11764098_at / RFU SAMD14 (11745864_x_at) / Fold change /veh SAMD14 (11745864_x_at) / RFU NPB (11741838_a_at) / Fold change /veh NPB (11741838_a_at) / RFU TMPRSS6 (11731388_a_at) / Fold change /veh TMPRSS6 (11731388_a_at) / RFU KRTAP10-2 (11738614_at) / Fold change /veh KRTAP10-2 (11738614_at) / RFU ARHGAP8 /// PRR5-ARHGAP8 (11727945_x_at) / Fold change /veh ARHGAP8 /// PRR5-ARHGAP8 (11727945_x_at) / RFU KRTAP5-7 /// NADSYN1 (11734609_at) / Fold change /veh KRTAP5-7 /// NADSYN1 (11734609_at) / RFU RASL12 (11751679_a_at) / Fold change /veh RASL12 (11751679_a_at) / RFU CDKN2B (11736163_a_at) / Fold change /veh CDKN2B (11736163_a_at) / RFU PRF1 (11729649_at) / Fold change /veh PRF1 (11729649_at) / RFU, ZNF638 /// ZNF638-IT1 / Fold change vs veh, ZNF638 /// ZNF638-IT1 / RFU, PANK3 / Fold change vs veh, PANK3 / RFU, SH3YL1 / Fold change vs veh, SH3YL1 / RFU, ZEB2 / Fold change vs veh, ZEB2 / RFU, NRIP1 / Fold change vs veh, NRIP1 / RFU, PTTG1IP / Fold change vs veh, PTTG1IP / RFU, CAPN2 / Fold change vs veh, CAPN2 / RFU, MED14 / Fold change vs veh, MED14 / RFU, SNORA58 / Fold change vs veh, SNORA58 / RFU, C1orf63 / Fold change vs veh, C1orf63 / RFU, LRRFIP1 / Fold change vs veh, LRRFIP1 / RFU, NDUFAF7 / Fold change vs veh, NDUFAF7 / RFU, SLC12A2 / Fold change vs veh, SLC12A2 / RFU, IBTK / Fold change vs veh, IBTK / RFU, ESF1 / Fold change vs veh, ESF1 / Fold change vs veh, TMEM50B / RFU, TAOK1 / Fold change vs veh, TAOK1 / RFU, ACBD3 / Fold change vs veh, ACBD3 / RFU, TMA16 / Fold change vs veh, TMA16 / RFU, RWDD3 / Fold change vs veh, RWDD3 / RFU, BCAT1 / Fold change vs veh, BCAT1 / RFU, EDEM3 / Fold change vs veh, EDEM3 / RFU, TMEM33 / Fold change vs veh, TMEM33 / RFU, WDR75 / Fold change vs veh, WDR75 / RFU, AHCTF1 / Fold change vs veh, AHCTF1 / RFU, TFRC / Fold change vs veh, TFRC / RFU, ZDHHC17 / Fold change vs veh, ZDHHC17 / RFU, NOM1 / Fold change vs veh, NOM1 / RFU, ARL8B / Fold change vs veh, ARL8B / RFU, ZBTB11 / Fold change vs veh, ZBTB11 / RFU, TAMM41 / Fold change vs veh, TAMM41 / RFU, KIAA1704 /// LOC100996395 / Fold change vs veh, KIAA1704 /// LOC100996395 / RFU, ING1 / Fold change vs veh, ING1 / RFU, TRMT61B / Fold change vs veh, TRMT61B / RFU, FUBP3 / Fold change vs veh, FUBP3 / RFU, TP53 / Fold change vs veh, TP53 / RFU, TNKS2 / Fold change vs veh, TNKS2 / RFU, ZFP14 / Fold change vs veh, ZFP14 / RFU, ACTR2 / Fold change vs veh, ACTR2 / RFU, PPP3R1 / Fold change vs veh, PPP3R1 / RFU, PIK3R1 / Fold change vs veh, PIK3R1 / RFU, HNRNPA1 / Fold change vs veh, HNRNPA1 / RFU, RNF170 / Fold change vs veh, RNF170 / RFU, ZNF28 / Fold change vs veh, ZNF28 / RFU, RNGTT / Fold change vs veh, RNGTT / RFU, OGT / Fold change vs veh, OGT / RFU, BRD1 / Fold change vs veh, BRD1 / RFU, MARS / Fold change vs veh, MARS / RFU, ZNF655 / Fold change vs veh, ZNF655 / RFU, FAHD1 / Fold change vs veh, FAHD1 / RFU, BDP1 / Fold change vs veh, BDP1 / RFU, LRRCC1 / Fold change vs veh, LRRCC1 / RFU, ARID1A / Fold change vs veh, ARID1A / RFU, ZNF146 / Fold change vs veh, ZNF146 / RFU, ZNF330 / Fold change vs veh, ZNF330 / RFU, GPN3 / Fold change vs veh, GPN3 / RFU, C9orf123 / Fold change vs veh, C9orf123 / RFU, N4BP2L2 / Fold change vs veh, N4BP2L2 / RFU, ARFIP1 / Fold change vs veh, ARFIP1 / RFU, FAM179B / Fold change vs veh, FAM179B / RFU, BCL10 / Fold change vs veh, BCL10 / RFU, UHRF1BP1L / Fold change vs veh, UHRF1BP1L / RFU, BET1 / Fold change vs veh, BET1 / RFU, CNOT2 / Fold change vs veh, CNOT2 / RFU, ZNF268 / Fold change vs veh, ZNF268 / Fold change vs veh, ZNF507 / RFU, DGCR2 / Fold change vs veh, DGCR2 / RFU, WDSUB1 / Fold change vs veh, WDSUB1 / Fold change vs veh, HSP90B1 /// MIR3652 / RFU, ADSS / Fold change vs veh, ADSS / RFU, GK / Fold change vs veh, GK / RFU, ZNF148 / Fold change vs veh, ZNF148 / RFU, TAF9 / Fold change vs veh, TAF9 / RFU, SLC1A5 / Fold change vs veh, SLC1A5 / RFU, SLMO2 / Fold change vs veh, SLMO2 / RFU, ABCC4 / Fold change vs veh, ABCC4 / RFU, LOC101060439 /// RAP1B / Fold change vs veh, LOC101060439 /// RAP1B / RFU, RFX7 / Fold change vs veh, RFX7 / RFU, GTPBP10 / Fold change vs veh, GTPBP10 / RFU, CNEP1R1 / Fold change vs veh, CNEP1R1 / RFU, BIVM-ERCC5 /// ERCC5 / Fold change vs veh, BIVM-ERCC5 /// ERCC5 / RFU, ILF3 / Fold change vs veh, ILF3 / RFU 11762660_at / Fold change /veh 11762660_at / RFU VCAN (11757783_s_at) / Fold change /veh VCAN (11757783_s_at) / RFU DDX43 (11728927_at) / Fold change /veh DDX43 (11728927_at) / RFU KRT8 (11758188_x_at) / Fold change /veh KRT8 (11758188_x_at) / RFU NKD1 (11759106_at) / Fold change /veh NKD1 (11759106_at) / RFU SRD5A1 (11742802_a_at) / Fold change /veh SRD5A1 (11742802_a_at) / RFU TPSAB1 /// TPSB2 (11721975_s_at) / Fold change /veh TPSAB1 /// TPSB2 (11721975_s_at) / RFU GSTM3 (11746129_a_at) / Fold change /veh GSTM3 (11746129_a_at) / RFU IL23R (11737362_x_at) / Fold change /veh IL23R (11737362_x_at) / RFU TMEM51 (11727254_a_at) / Fold change /veh TMEM51 (11727254_a_at) / RFU PIWIL2 (11732686_x_at) / Fold change /veh PIWIL2 (11732686_x_at) / RFU ORM1 (11744905_x_at) / Fold change /veh ORM1 (11744905_x_at) / RFU CCDC152 (11743942_at) / Fold change /veh CCDC152 (11743942_at) / RFU ECM1 (11717891_a_at) / Fold change /veh ECM1 (11717891_a_at) / RFU IL23R (11748794_a_at) / Fold change /veh IL23R (11748794_a_at) / RFU TNFAIP8L3 (11732012_x_at) / Fold change /veh TNFAIP8L3 (11732012_x_at) / RFU MBOAT4 (11741988_at) / Fold change /veh MBOAT4 (11741988_at) / RFU 11764193_at / Fold change /veh 11764193_at / RFU TMEM53 (11763286_at) / Fold change /veh TMEM53 (11763286_at) / RFU MAGEB2 (11727129_at) / Fold change /veh MAGEB2 (11727129_at) / RFU TMEM200A (11744735_a_at) / Fold change /veh TMEM200A (11744735_a_at) / RFU CCDC152 (11751479_a_at) / Fold change /veh CCDC152 (11751479_a_at) / RFU FAM211A (11726209_a_at) / Fold change /veh FAM211A (11726209_a_at) / RFU RGS16 (11746705_a_at) / Fold change /veh RGS16 (11746705_a_at) / RFU VCAN (11755009_s_at) / Fold change /veh VCAN (11755009_s_at) / RFU RHOB (11743442_s_at) / Fold change /veh RHOB (11743442_s_at) / RFU RGS16 (11720943_a_at) / Fold change /veh RGS16 (11720943_a_at) / RFU RGS16 (11720944_at) / Fold change /veh RGS16 (11720944_at) / RFU, VPS4B / Fold change vs veh, VPS4B / RFU, CREB1 / Fold change vs veh, CREB1 / RFU, DNAJC13 / Fold change vs veh, DNAJC13 / RFU, GNAQ / Fold change vs veh, GNAQ / RFU, CDK5R1 / Fold change vs veh, CDK5R1 / RFU, ZRANB3 / Fold change vs veh, ZRANB3 / RFU, CUL4A / Fold change vs veh, CUL4A / RFU, CCNY / Fold change vs veh, CCNY / RFU, UFL1 / Fold change vs veh, UFL1 / RFU, COG3 / Fold change vs veh, COG3 / RFU, DIAPH2 / Fold change vs veh, DIAPH2 / RFU, SKA2 / Fold change vs veh, SKA2 / RFU, AFF3 / Fold change vs veh, AFF3 / RFU, LMF1 / Fold change vs veh, LMF1 / RFU, IPO11 / Fold change vs veh, IPO11 / RFU, DFFB / Fold change vs veh, DFFB / RFU, FOXP1 / Fold change vs veh, FOXP1 / RFU, CARD8 / Fold change vs veh, CARD8 / RFU, STRN3 / Fold change vs veh, STRN3 / RFU, ADK / Fold change vs veh, ADK / RFU, RASSF2 / Fold change vs veh, RASSF2 / RFU, WIPF1 / Fold change vs veh, WIPF1 / RFU, LARP1B / Fold change vs veh, LARP1B / RFU, RASA1 / Fold change vs veh, RASA1 / RFU, RB1 / Fold change vs veh, RB1 / RFU, PPFIA1 / Fold change vs veh, PPFIA1 / RFU, MAT2A / Fold change vs veh, MAT2A / RFU, CCT5 / Fold change vs veh, CCT5 / RFU, WDR92 / Fold change vs veh, WDR92 / RFU, CUX1 / Fold change vs veh, CUX1 / RFU, TTC7A / Fold change vs veh, TTC7A / RFU, TMEM135 / Fold change vs veh, TMEM135 / RFU, DEPTOR / Fold change vs veh, DEPTOR / RFU, CPM / Fold change vs veh, CPM / RFU, DNAJB6 / Fold change vs veh, DNAJB6 / RFU, CACNA2D3 / Fold change vs veh, CACNA2D3 / RFU, DTX4 / Fold change vs veh, DTX4 / RFU, TFCP2 / Fold change vs veh, TFCP2 / RFU, GMCL1 /// GMCL1P1 / Fold change vs veh, GMCL1 /// GMCL1P1 / RFU, AEBP2 / Fold change vs veh, AEBP2 / RFU, SNHG1 /// SNORD22 /// SNORD25 /// SNORD26 /// SNORD27 /// SNORD28 /// SNORD29 /// SNORD31 / Fold change vs veh, SNHG1 /// SNORD22 /// SNORD25 /// SNORD26 /// SNORD27 /// SNORD28 /// SNORD29 /// SNORD31 / Fold change (Aza/veh), C12orf56 (ProbeSet 11735607_a_at) / Fold change (ACY-1035/veh), C12orf56 (ProbeSet 11735607_a_at) / Fold change (Aza/veh), FGFR1OP (ProbeSet 11751329_s_at) / Fold change (ACY-1035/veh), FGFR1OP (ProbeSet 11751329_s_at) / Fold change (Aza/veh), VPS36 (ProbeSet 11739960_a_at) / Fold change (ACY-1035/veh), VPS36 (ProbeSet 11739960_a_at) / RFU SYPL1 (11715823_x_at) / Fold change /veh SYPL1 (11715823_x_at) / RFU IGFBP7 (11715501_s_at) / Fold change /veh IGFBP7 (11715501_s_at) / RFU REEP3 (11722064_at) / Fold change /veh REEP3 (11722064_at) / RFU IGLL1 (11728026_x_at) / Fold change /veh IGLL1 (11728026_x_at): dose or concentration left out as unconfirmed
Settings: ProbeSet 11755436_x_at; LIST B

Nc1ccc(-c2cccs2)cc1NC(=O)c1ccc2c(c1)cc(C1CC1)n2CCN1CCOCC1 [ACY-1035]
Fold change vs veh, ARID1A: 0.98
